Test results: ChEMBL document CHEMBL1201862, “PubChem BioAssay data set” (2004)
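Cultured in 96-well plates, cells were exposed to test compound for 48 hours across five concentrations. GI50: concentration for 50% inhibition of growth.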 Activity calls are given as the source filed them. No stated cut-off is given here; in the data, active = GI50 up to about 1.1 µM and inactive = higher.

Tests used:
Assay in all cases: DTP human tumour cell line panel, 48 h
A498 = system: A498
CAKI-1 = system: CAKI-1
COLO 205 = system: COLO 205
HCT-116 = system: HCT-116
IGROV-1 = system: IGROV-1
K562 = system: K562
KM12 = system: KM12
LOX IMVI = system: LOX IMVI
NCI-H23 = system: NCI-H23
NCI-H522 = system: NCI-H522
SF-268 = system: SF-268
SF-295 = system: SF-295
SK-MEL-28 = system: SK-MEL-28
SK-OV-3 = system: SK-OV-3
SN12C = system: SN12C
SR = system: SR
DU-145 = system: DU-145
MDA-MB-435 = system: MDA-MB-435
MDA-N = system: MDA-N

Measured: GI50

COC(=O)c1c[nH]c2nc(N3CCOCC3)nn2c1=O
inactive: A498 > 100 µM | CAKI-1 > 100 µM | COLO 205 > 100 µM | HCT-116 > 100 µM | IGROV-1 1.84 µM | K562 > 100 µM | KM12 > 100 µM | LOX IMVI > 100 µM | NCI-H23 > 100 µM | NCI-H522 > 100 µM | SF-268 > 100 µM | SF-295 > 100 µM | SK-MEL-28 > 100 µM | SK-OV-3 > 100 µM | SN12C > 100 µM | SR > 100 µM

CC1(C)C(=O)C=CC2(C)C1CC(O)C1(C)C2CCC2(C)C(c3ccoc3)OC(=O)C3OC321 (configuration not stated)
inactive: A498 15.3 µM | CAKI-1 11.7 µM | COLO 205 21.5 µM | DU-145 16.4 µM | HCT-116 15.3 µM | IGROV-1 14.3 µM | K562 24.8 µM | KM12 14.9 µM | LOX IMVI 15.7 µM | MDA-MB-435 23.7 µM | MDA-N 18.1 µM | NCI-H23 12.1 µM | NCI-H522 11.5 µM | SF-295 20 µM | SK-MEL-28 24.8 µM | SK-OV-3 23.7 µM | SN12C 18.7 µM

N#C/C(=C\c1cc(Br)c(O)c(Br)c1)c1ccccn1
inactive: CAKI-1 > 100 µM | COLO 205 52.4 µM | DU-145 > 100 µM | HCT-116 > 100 µM | IGROV-1 > 100 µM | K562 34.6 µM | KM12 39.1 µM | MDA-N > 100 µM | NCI-H23 44 µM | NCI-H522 64.9 µM | SF-268 93.8 µM | SF-295 16 µM | SK-MEL-28 82 µM | SK-OV-3 32.5 µM | SN12C 46.7 µM | SR > 100 µM

CC1(C)CC(=O)C(=CN2C(=O)CNC2=S)C(=O)C1
inactive: CAKI-1 > 100 µM | COLO 205 > 100 µM | DU-145 > 100 µM | HCT-116 > 100 µM | IGROV-1 > 100 µM | KM12 > 100 µM | MDA-MB-435 > 100 µM | MDA-N > 100 µM | NCI-H23 > 100 µM | NCI-H522 > 100 µM | SF-268 > 100 µM | SF-295 > 100 µM | SK-OV-3 > 100 µM | SN12C > 100 µM

CC1CCCC(C(O)CC2CC(=O)N(c3ccccc3)C(=O)C2)C1=O (configuration not stated)
inactive: A498 > 100 µM | CAKI-1 > 100 µM | COLO 205 > 100 µM | HCT-116 > 100 µM | IGROV-1 > 100 µM | K562 > 100 µM | KM12 > 100 µM | LOX IMVI > 100 µM | NCI-H23 > 100 µM | NCI-H522 > 100 µM | SF-268 > 100 µM | SF-295 > 100 µM | SK-MEL-28 > 100 µM | SK-OV-3 > 100 µM | SN12C > 100 µM | SR > 100 µM

N#CC1=C(Cl)NC(Cl)=C(C#N)C1c1ccc(Cl)cc1
inactive: A498 32.4 µM | CAKI-1 17.9 µM | COLO 205 16.5 µM | HCT-116 20.2 µM | IGROV-1 18.2 µM | K562 11.9 µM | KM12 17.6 µM | LOX IMVI 16.1 µM | NCI-H23 17.9 µM | NCI-H522 13 µM | SF-268 18.7 µM | SF-295 27.2 µM | SK-MEL-28 22.9 µM | SK-OV-3 17.2 µM | SN12C 16.9 µM | SR 21.7 µM

O=C1C2C(C(=O)N1c1ccccc1)C1([N+](=O)[O-])C=C3c4ccccc4N(C(=O)c4ccccc4)C32C2C(=O)N(c3ccccc3)C(=O)C21 (configuration not stated)
inactive: A498 > 100 µM | CAKI-1 > 100 µM | COLO 205 > 100 µM | HCT-116 > 100 µM | IGROV-1 > 100 µM | K562 > 100 µM | KM12 > 100 µM | LOX IMVI > 100 µM | NCI-H23 > 100 µM | NCI-H522 > 100 µM | SF-268 > 100 µM | SF-295 > 100 µM | SK-MEL-28 > 100 µM | SK-OV-3 > 100 µM | SN12C > 100 µM | SR > 100 µM

O=[N+]([O-])c1ccc(-n2nnc(C3=NCCN3)c2-c2ccccc2)cc1
inactive: A498 > 100 µM | CAKI-1 > 100 µM | COLO 205 > 100 µM | HCT-116 > 100 µM | IGROV-1 > 100 µM | K562 > 100 µM | KM12 > 100 µM | LOX IMVI > 100 µM | NCI-H23 > 100 µM | NCI-H522 > 100 µM | SF-268 > 100 µM | SF-295 > 100 µM | SK-MEL-28 > 100 µM | SK-OV-3 > 100 µM | SN12C > 100 µM | SR > 100 µM

Cc1c(C(=O)/C=C/c2ccccc2)[n+]([O-])c2ccccc2[n+]1[O-]
inactive: A498 15.8 µM | CAKI-1 17.5 µM | COLO 205 16.3 µM | HCT-116 15.8 µM | IGROV-1 17.5 µM | K562 15.6 µM | KM12 15.9 µM | LOX IMVI 14.5 µM | NCI-H23 15.7 µM | NCI-H522 6.62 µM | SF-268 19.7 µM | SF-295 16.4 µM | SK-MEL-28 16.7 µM | SK-OV-3 20.1 µM | SN12C 13.8 µM | SR 23.2 µM

O=c1c2ccccc2nc(Cc2nc(-c3ccc(Cl)cc3)cs2)n1-c1ccc(Cl)cc1
inactive: A498 68.1 µM | CAKI-1 > 100 µM | COLO 205 49.5 µM | DU-145 55.8 µM | HCT-116 37.2 µM | IGROV-1 45.2 µM | K562 5.01 µM | KM12 41.8 µM | LOX IMVI 50.2 µM | MDA-MB-435 46.3 µM | MDA-N 41.4 µM | NCI-H23 56.8 µM | NCI-H522 > 100 µM | SF-268 62.4 µM | SF-295 44.4 µM | SK-MEL-28 23.8 µM | SK-OV-3 > 100 µM

Cc1cccc(C)c1NC(=O)CCC(=O)/N=C(\N)NC#N
inactive: A498 > 100 µM | CAKI-1 > 100 µM | COLO 205 > 100 µM | HCT-116 > 100 µM | IGROV-1 > 100 µM | K562 > 100 µM | KM12 > 100 µM | LOX IMVI > 100 µM | NCI-H23 > 100 µM | NCI-H522 > 100 µM | SF-268 > 100 µM | SF-295 > 100 µM | SK-MEL-28 77.8 µM | SK-OV-3 > 100 µM | SN12C > 100 µM | SR > 100 µM

C=CCN(C(=O)OC(C)(C)C)C1=CC2C(C)=CN(S(=O)(=O)c3ccccc3)C2C(OCc2ccccc2)=C1 (configuration not stated)
inactive: CAKI-1 > 100 µM | COLO 205 > 100 µM | DU-145 > 100 µM | HCT-116 54 µM | IGROV-1 > 100 µM | K562 7.59 µM | KM12 > 100 µM | LOX IMVI > 100 µM | MDA-MB-435 > 100 µM | MDA-N > 100 µM | NCI-H23 > 100 µM | NCI-H522 > 100 µM | SF-295 > 100 µM | SK-MEL-28 > 100 µM | SK-OV-3 > 100 µM | SN12C > 100 µM
